Values of other authors in patent US11766396B2, “Kit and method for dyeing keratinous material by means of aminosilicone and a chromophoric compound” (Henkel AG & Co. KGaA, priority 2019, dated 2023).

Tests used:
[1] = 25° C.
[2] = 5% solution in water

pH value of solution in water [2]	Structure (SMILES)	solubility in water [1]
	O=S(=O)([O-])c1ccc(N=Nc2c(O)ccc3ccccc23)cc1.[Na+] [Acid Orange 7, sodium salt of 4-[(2-hydroxy-1-naphthyl)azo]benzene sulphonate]	more than 7 g/L
	Nc1cc(S(=O)(=O)[O-])cc2cc(S(=O)(=O)[O-])c(N=Nc3ccccc3)c(O)c12.[Na+].[Na+] [Acid Red 33, diantrium salt of 5-amino-4-hydroxy-3-(phenylazo)-naphthalene-2,7-disulphonate]	2500 µg/mL
	O=C([O-])c1c(Cl)c(Cl)c(Cl)c(Cl)c1-c1c2c(Br)cc(=O)c(Br)c-2oc2c(Br)c(O)cc(Br)c12.O=C([O-])c1c(Cl)c(Cl)c(Cl)c(Cl)c1-c1c2c(Br)cc(=O)c(Br)c-2oc2c(Br)c(O)cc(Br)c12.[Na+].[Na+] [Acid Red 92, disodium salt of 3,4,5,6-tetrachloro-2-(1,4,5,8-tetrabromo-6-hydroxy-3-oxoxanthen-9-yl)benzoic acid]	greater than 10 g/L
	O=C([O-])C1=NN(c2ccc(S(=O)(=O)[O-])cc2)C(=O)C1N=Nc1ccc(S(=O)(=O)[O-])cc1.[Na+].[Na+].[Na+] (centres unmarked) [Acid Yellow 23, trisodium salt of 4,5-dihydro-5-oxo-1-(4-sulfophenyl)-4-((4-sulfophenyl)azo)-1H-pyrazole-3-carboxylic acid]	highly soluble
4.4	O=P([O-])(O)O.[K+] [Potassium dihydrogen phosphate]	
